Results published in PubChem BioAssay AID1671295.

Target: Receptor tyrosine-protein kinase erbB-4 (Homo sapiens) (UniProt Q15303)
Assay: inhibition of HER4 tyrosine kinase activity – biochemical, Z'-LYTE FRET, direct format, recombinant human, dose response (AID 1671295)
Conditions: recombinant ERBB4

Chain of Receptor tyrosine-protein kinase erbB-4 (Homo sapiens) (Q15303 whole entry, looked up): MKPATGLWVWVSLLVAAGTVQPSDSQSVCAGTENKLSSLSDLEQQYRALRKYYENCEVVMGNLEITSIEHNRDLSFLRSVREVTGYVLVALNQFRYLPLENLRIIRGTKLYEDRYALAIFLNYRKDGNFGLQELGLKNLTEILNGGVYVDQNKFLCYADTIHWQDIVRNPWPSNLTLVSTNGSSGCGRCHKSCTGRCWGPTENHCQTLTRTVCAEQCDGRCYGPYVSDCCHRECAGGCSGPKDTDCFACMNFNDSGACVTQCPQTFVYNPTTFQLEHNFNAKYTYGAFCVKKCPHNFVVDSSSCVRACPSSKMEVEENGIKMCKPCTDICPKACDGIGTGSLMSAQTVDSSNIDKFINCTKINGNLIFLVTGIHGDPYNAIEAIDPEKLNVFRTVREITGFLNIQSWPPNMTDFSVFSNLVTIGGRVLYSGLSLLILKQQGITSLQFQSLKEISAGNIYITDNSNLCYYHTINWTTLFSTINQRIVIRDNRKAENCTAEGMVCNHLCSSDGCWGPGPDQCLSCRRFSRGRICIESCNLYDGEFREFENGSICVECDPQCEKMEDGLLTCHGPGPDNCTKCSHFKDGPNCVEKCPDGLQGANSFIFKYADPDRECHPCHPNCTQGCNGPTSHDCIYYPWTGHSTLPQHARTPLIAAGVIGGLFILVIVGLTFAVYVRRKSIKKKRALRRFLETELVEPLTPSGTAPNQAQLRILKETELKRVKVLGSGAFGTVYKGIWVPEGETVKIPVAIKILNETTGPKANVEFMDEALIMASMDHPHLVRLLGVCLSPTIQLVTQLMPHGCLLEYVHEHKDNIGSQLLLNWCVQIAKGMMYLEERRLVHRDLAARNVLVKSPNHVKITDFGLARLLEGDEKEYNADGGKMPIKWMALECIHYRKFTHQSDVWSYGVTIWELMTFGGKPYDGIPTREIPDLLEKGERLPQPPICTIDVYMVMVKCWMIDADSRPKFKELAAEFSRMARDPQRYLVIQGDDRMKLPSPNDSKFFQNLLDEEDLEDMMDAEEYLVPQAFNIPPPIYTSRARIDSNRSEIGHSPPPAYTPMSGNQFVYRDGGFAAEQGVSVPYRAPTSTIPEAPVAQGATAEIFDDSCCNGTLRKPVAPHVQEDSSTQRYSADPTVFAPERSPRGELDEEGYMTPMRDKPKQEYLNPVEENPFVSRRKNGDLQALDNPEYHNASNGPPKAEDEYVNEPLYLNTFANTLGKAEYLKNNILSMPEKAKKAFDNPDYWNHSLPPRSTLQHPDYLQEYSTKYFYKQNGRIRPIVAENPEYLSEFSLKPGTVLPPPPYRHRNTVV

- IC50: 154 nM
SMILES: COc1cc2ncnc(Nc3cccc(Cl)c3)c2cc1OC
